The values below come from PMC9194936, “Preclinical Activity and Pharmacokinetic/Pharmacodynamic Relationship for a Series of Novel Benzenesulfonamide Perforin Inhibitors” (ACS Pharmacology & Translational Science, 2022).

Where two headings read alike, the source gives them in different places.

As a reminder, the IC90 is the point of the concentration-response curve where the effect stands at 90%. Usually Cmax stands for the peak of the concentration-time curve. Broadly, the IC50 is the point on the concentration scale where inhibition reaches its midpoint. Broadly, the AUC is the area under the concentration-time curve, a measure of exposure.

The test system of series [1] is perforin-dependent cytotoxicity of KHYG-1 NK cells on K562 target cells. In words: KHYG-1 cytotoxicity assay (51Cr-labeled K562 target cells). Type of series: cell-based. The conditions noted are these: Homo sapiens. As for the experimental part:
(Table 1). […] An IC90 was used rather than an IC50 as we anticipated that elevated suppression of perforin activity is likely required to preserve the transplanted bone marrow stem cells in vivo.
The inhibition of the cytotoxic activity of KHYG-1 NK cells on K562 target cells was determined as described previously.[14] Briefly, compounds were added to KHYG-1 cells at 6–7 concentrations ranging from 20 μM to 312.5 nM in 2-fold dilutions in RPMI medium (Thermo Fisher Scientific, Waltham, MA) supplemented with 0.1% bovine serum albumin (BSA; Sigma-Aldrich, St. Louis, MO) for 20 min. ^51Cr-labeled K562 leukemia target cells were added to KHYG-1 cells at an effector/target ratio of 2:1 and incubated at 37 °C for 4 h. ^51Cr release was assayed using a Harvesting Press (Skatron Instruments, Lier, Norway), and radioactivity was estimated on a Wallac Wizard 1470 Automatic γ counter (Turku, Finland). The IC90 values were calculated by fitting a four-parameter logistic sigmoidal dose–response curve to the data using Prism version 8 (GraphPad, San Diego, CA). Each IC90 value represents the mean of at least three independent experiments, where six to seven concentrations were tested in triplicate for each compound.

Series [2] in a line: Mouse plasma pharmacokinetics. To be noted: for AUC(0-t): read-out: AUC0–24. Format: in vivo. As for the experimental part: Male C57BL/6 mice (18–25 g) were supplied and housed under controlled temperature and humidity at the Vernon Jansen Unit of the University of Auckland. The mice had access to a pelleted diet and water ad libitum. All animal experimentation followed protocols approved by the University of Auckland Animal Ethics Committee (approval #001781). Dosing solutions were prepared in 20% hydroxypropyl-β-cyclodextrin (Sigma-Aldrich). The mice received one to three doses by intraperitoneal route and were euthanised at predetermined time points (n = 3 mice per time point at 0.083, 0.25, 0.5, 1, 2, 4, 6, and 24 h for 10 mg/kg 1 and 7; 0.5, 1, 2, 6, and 24 h for 80 and 160 mg/kg 1; and 1, 6, and 24 h for 120 mg/kg 1). Blood samples (∼300 μL) were obtained through cardiac bleed and collected in ice-cold K2-EDTA tubes (BD, Franklin Lakes, NJ). Plasma was separated by centrifugation at 6500 rpm for 5 min and stored at −80 °C. On the day of analysis, plasma samples were thawed on ice and the analytes were extracted by mixing 10 μL of aliquots with four volumes of ice-cold acetonitrile/methanol (1:1 v/v) containing internal standard. The samples were kept on ice for 10 min to ensure complete protein precipitation, vortexed for 2 min, and centrifuged at 13 000 rpm for 5 min at room temperature. The clear supernatant was then diluted (1:1 v/v) with 40 μL of 0.01% formic acid in Milli-Q water prior to analysis by LC-MS/MS.
Compound concentration in biological matrices was measured by LC-MS/MS using a 6410b triple-quadrupole mass spectrometer (Agilent, Santa Clara) equipped with a multimode ionization source. The optimized mass detector conditions, namely, ionization polarity, precursor product ions, fragmentor voltage, and collision energy, were manually determined by infusing a 5 μM solution of the pure compound into the ion source. Chromatographic separation was achieved using a Zorbax SB-C18, 50 × 2.1 mm^2, 5 μm column (Agilent), and an Agilent 1100 series HPLC system. The mobile phase used was (A) 0.01% formic acid in Milli-Q water and (B) 80% acetonitrile containing 0.01% formic acid in ultrapure water at a flow rate of 0.6 mL/min. A gradient elution was used over 5 min, and the flow rate was maintained at 0.6 mL/min throughout the gradient. The column oven temperature and the autosampler temperature were set to 35 and 4 °C, respectively. […] The instrument multimode source parameters were set as follows: gas temperature, 325 °C; vaporizer, 250 °C; gas flow, 5 L/min; and nebulizer, 45 psi. The ion spray voltage was set at 3000 V. Detection of the compounds was carried out in multiple reaction monitoring mode by monitoring the m/z transitions of precursor to selective product ion. For each compound, fragmentor voltage and collision energy were optimized to achieve maximum abundance. Quadrupoles Q1 and Q3 were set to unit resolution.
Test samples were diluted up to 100-fold in blank plasma as necessary and quantitated against a calibration curve of known analyte concentrations ranging from 3 nM to 30 μM in an appropriate matrix and quality controls at 0.03, 0.3, 3, and 30 μM. Pharmacokinetic parameters were evaluated using noncompartmental analysis and pharmacokinetic simulations using one-compartment analysis on Phoenix WinNonlin version 6.2 (Certara, Princeton, NJ). Multiple-dose simulations were generated from parameters derived from single-dose simulations.

The subject of another series is recombinant perforin. On the set-up: method as in PMID 28582670, PMID 28110869. The conditions noted are these: lytic activity of recombinant perforin against Jurkat T leukemia cells; cited from earlier work.
Details of series [3]: method as in PMID 28582670; AUC: concentration or dose not given beside the values. To be noted: mouse plasma; cited from earlier work.
Setting [4] is: concentration inhibiting 90% of perforin-dependent cytotoxicity, K562 targets, effector/target 2:1, 4 h, RPMI 0.1% BSA, read-out: KHYG-1 IC90.
[5] abbreviates: male, mouse, ip, 80 mg/kg single i.p. dose, C57BL/6 mice, plasma.
[6] abbreviates: male, mouse, ip, 120 mg/kg single i.p. dose, C57BL/6 mice, plasma.
The mark [7] stands for this setting: male, mouse, ip, 160 mg/kg single i.p. dose, C57BL/6 mice, plasma.
Where [8] appears, read: male, C57BL/6, ip, mouse plasma, 10 mg/kg intraperitoneal.

With `CN1Cc2cc(-c3ccc(-c4cncc(NS(=O)(=O)c5ccccc5[N+](=O)[O-])c4)s3)ccc2C1=O` [Compound 1, N-{5-[5-(2-methyl-1-oxo-2,3-dihydro-1H-isoindol-5-yl)-2-thienyl]-3-pyridinyl}-2-nitrobenzenesulfonamide], the IC90 was 0.77 µM in series [1] (KHYG-1, estimated from IC90 5.37 μM and media free fraction 0.144, read-out: unbound in vitro IC90 in KHYG-1 cells); 5.37 ± 1.1 µM in series [1] (setting [4]). Further, the Cmax in series [2] (10 mg/kg single i.p. dose, C57BL/6 mice, plasma) was 105 µM; in series [2] (setting [5]), 782 µM; in series [2] (setting [6]), 1030 µM; in series [2] (setting [7]) it was 1190 µM; in series [3], 105 µM. Further, the half-life in series [2] (male, C57BL/6, mouse, plasma, intraperitoneal, across the dose levels 160, 120, 80 and 10 mg/kg, read-out: elimination half-life) was 2.4 to 3.4 h; in series [2] (male, mouse, ip, 10 mg/kg single i.p. dose, C57BL/6 mice, plasma, read-out: T1/2 (converted)) it was 2.38 h; in series [2] (male, mouse, ip, 80 mg/kg single i.p. dose, C57BL/6 mice, plasma, read-out: T1/2 (converted)) it was 2.85 h; in series [2] (male, mouse, ip, 120 mg/kg single i.p. dose, C57BL/6 mice, plasma, read-out: T1/2 (converted)) it was 2.85 h; in series [2] (male, mouse, ip, 160 mg/kg single i.p. dose, C57BL/6 mice, plasma, read-out: T1/2 (converted)), 3.36 h. In addition, the AUC(0-t) came to 413 µM·h in series [2] (male, mouse, ip, 10 mg/kg single i.p. dose, C57BL/6 mice, plasma); 5440 µM·h in series [2] (setting [5]); 7320 µM·h in series [2] (setting [6]); 8940 µM·h in series [2] (setting [7]). The IC50 in the series with recombinant perforin is 6.65 µM. Besides, the AUC in series [3] was 415 µM·h.

For the compound `O=C1NCc2ccc(-c3ccc(-c4cncc(NS(=O)(=O)c5ccc(F)cc5F)c4)s3)cc21` [Compound 7, 2,4-difluoro-N-{5-[5-(3-oxo-2,3-dihydro-1H-isoindol-5-yl)-2-thienyl]-3-pyridinyl}benzenesulfonamide], in series [1] (setting [4]), the IC90 amounted to 28.9 ± 6.7 µM. Further, in series [2] (setting [8]), the AUC stood at 1220 µM·h and the concentration peaked (Cmax) at 235 µM. Moreover, the half-life in series [2] (male, C57BL/6, ip, mouse plasma, 10 mg/kg intraperitoneal, read-out: T1/2 (converted)) was 4.1 h. Further, the IC50 in the series with recombinant perforin was 4.15 µM.
